From patent US20170247449A1, “THERAPEUTIC METHOD AND MEDICAMENT FOR CANCER PATIENTS BY FOLR1-TARGETING DRUG AND AN ANTAGONIST FOR FOLIC ACID METABOLISM” (KYOWA HAKKO KIRIN CO., LTD, priority 2014, published 2017)

How the values were obtained:
[1] = test system: FOLR1 expression in NCI-H1437; test: Expression level of FOLR1 in NSCLC cell line after incubation with pemetrexed (flow cytometry, MFI); assay type: cell-based, human; settings: NCI-H1437, low folic acid medium, 72 hours
Method: (§1) NSCLC cell lines such as NCI-H522 [American Type Culture Collection (hereinafter referred to as ATCC) No. CRL-5810], NCI-H838 (ATCC No. CRL-5844), NCI-H1437 (ATCC No. CRL-5872) and NCI-H2228 (ATCC No. CRL-5935) were cultured in a culture medium [RPMI1640 (GIBCO), 10% inactivated bovine serum (FCS, GIBCO)].
(§2) Next, cells were detached from culture flasks using TrypLE Express (GIBCO) and suspended in a folic acid-free medium [RPMI 1640 folate-free (GIBCO), 10% inactivated dialyzed FCS (dFCS, GIBCO)]. The cells were seeded to 25-cm^2 tissue culture (TC) flasks at 2.5×10^5 cells/4 mL.
(§3) After culturing each cell line under the above conditions, cells were detached using TrypLE Express, washed with phosphate buffer saline (PBS) and then suspended in FCM buffer (PBS containing 1 mmol/L EDTA, 0.05% sodium azide and 5% inactivated FCS).
(§4) Next, the cells were seeded in a 96-well plate at 1×10^5 cells per well and centrifuged at 1700 rpm for one minute. After removing the supernatant, an anti-human FOLR1 humanized antibody (HuRA15-7CTAcc antibody) (WO2014/087863) which was prepared at 10 μg/mL with FCM buffer was added to the cells and reacted for 30 minutes at 4° C.
(§5) After washing the cells, Anti-Human IgG-FITC (Jackson) which was diluted 100 times with the FCM buffer was added and reacted for 30 minutes at 4° C. After washing the cells again, the cells were suspended in the FCM buffer. The fluorescence intensities were analyzed with a flow cytometer (Beckman Coulter, Inc., FC500MPL) to determine the mean fluorescence intensity (MFI) of each cell.

[2] = test system: FOLR1 expression in NCI-H2228; test: as above; assay type: cell-based, human; settings: NCI-H2228, low folic acid medium, 72 hours
Method: as §1, §2, §3, §4, §5

[3] = test system: FOLR1 expression in NCI-H838; test: as above; assay type: cell-based, human; settings: NCI-H838, low folic acid medium, 0, 10 or 1000 nmol/L pemetrexed, 72 hours
Method: as §1, §2, §3, §4, §5

[4] = test system: FOLR1 expression in NCI-H522; test: as above; assay type: cell-based, human; settings: NCI-H522, low folic acid medium, 0, 10 or 1000 nmol/L pemetrexed, 72 hours
Method: as §1, §2, §3, §4, §5

[5] = test system: FOLR1 expression in SKOV-3; test: Expression level of FOLR1 in ovarian cancer cell line after incubation with pemetrexed; assay type: cell-based, human
Method: as §3, §4, §5
(§6) First, SKOV-3 [American Type Culture Collection (hereinafter referred to as ATCC) No. HTB-77], MCAS (JCRB cell No. JCRB0240), NIH:OVCAR-3 (ATCC No. HTB-161) and IGR-OV1 (National Cancer Institute), which are ovarian cancer-derived cell lines, were cultured in the culture medium.

[6] = test system: FOLR1 expression in IGR-OV1; test: as above; assay type: cell-based, human
Method: as §3, §4, §5, §6

FOLR1 expression in MCAS = test: as above; assay type: cell-based, human
Method: as §3, §4, §5, §6

[7] = test system: FOLR1 expression in OVCAR-3; test: as above; assay type: cell-based, human; settings: OVCAR-3 [FIG. 2(C)], low folic acid medium, regardless of the final pemetrexed concentration
Method: as §3, §4, §5, §6

[8] = test system: FOLR1 expression in MES-SA; test: Expression level of FOLR1 in endometrial cancer cell line after incubation with pemetrexed; assay type: cell-based, human
Method: (§7) Endometrial cancer-derived cell line MES-SA (ATCC No. CRL-1976) and HEC-1-A (ATCC No. HTB-112) were cultured in McCoy's 5A medium (ATCC) containing 10% FCS (GIBCO), and HEC-1-B (ATCC No. HTB-113) was cultured in Eagle's Minimum Essential Medium (ATCC) containing 10% FCS (GIBCO).
(§8) Also, a flow cytometer manufactured by Becton, Dickinson and Company (FACSVerse) was used instead of the flow cytometer manufactured by Beckman Coulter, Inc. (FC500MPL).

[9] = test system: FOLR1 expression in HEC-1-B; test: as above; assay type: cell-based, human
Method: as §7, §8

[10] = test system: FOLR1 expression in HEC-1-A; test: as above; assay type: cell-based, human
Method: as §7, §8

in vitro = settings: human, MCAS ovarian cancer cells
[11] = test system: NSCLC cell line NCI-H2228; test: ADCC activity against pemetrexed-treated NCI-H2228 using healthy donor PBMCs (LDH release); assay type: cell-based, human; settings: for ADCC activity against NCI-H2228 cultured with pemetrexed versus cultured without pemetrexed: 1000 nmol/L pemetrexed, P<0.05
Method: (§9) These cells were adjusted at 1×10^4 cells/50 μL using ADCC measurement medium [phenol red-free RPMI1640 (GIBCO), 5% inactivated dFCS (GIBCO)] as target cell solutions.
(§10) Next, heparin-treated peripheral blood of a healthy donor was loaded into a LeucoSep lymphocyte separation tube (Greiner) filled with Lymphoprep (Cosmo Bio), and centrifuged at 1000×g for 20 minutes at room temperature.
(§11) After the centrifugation, the plasma fraction was removed, and the peripheral blood mononuclear cell (PBMC) layer was collected. Then, the cells were washed with the ADCC measurement medium. The PBMCs were adjusted at 2.5×10^5 cells/50 μL using the ADCC measurement medium as an effector cell solution.
HuRA15-7CTAcc antibody and MORAb-003 (farletuzumab) were used as anti-human FOLR1 humanized antibodies.
(§12) Fifty μL of each the target cell solution, the effector cell solution, and the antibody solution, which were prepared as described above, were mixed in a U-bottom 96-well plate, so that the total volume of each well was 150 μL. After mixing the wells, the cells were precipitated by centrifugation at 50×g for five minutes at room temperature. These cells were reacted for four hours at 37° C.
(§13) After mixing the wells, the cells were precipitated again by centrifugation. Then, 50 μL of the supernatant of each well was dispensed to a new 96-well plate. The lactate dehydrogenase (LDH) activities of the dispensed supernatant solutions were measured using CytoTox 96 Non-Radioactive Cytotoxicity Assay (Promega) according to the instruction.
(§14) The ADCC activity was calculated by the following equation after subtracting the measured LDH activity value of the well containing the ADCC measurement medium only from the measured LDH activity value of all wells. These values were determined as the corrected LDH activity value of each well.
ADCC Activity (%)=100×(Exp−ET spo)/(T total−D−T spo) [Chem. 1] […]
The ADCC activity against the NSCLC cell line NCI-H2228 was evaluated by a similar method to that in Example 3 except for using pemetrexed at the final concentration of 0, 20 or 1000 nmol/L in the culture.

ovarian cancer = settings: cited from earlier work
NSCLC = settings: patients with NSCLC; clinical trials terminated; cited from earlier work
[12] = test system: ovarian cancer cell line MCAS; test: ADCC activity against pemetrexed-treated MCAS using healthy donor PBMCs (LDH release); assay type: cell-based, human; settings: for ADCC activity against MCAS cultured with pemetrexed versus cultured without pemetrexed: 20 nmol/L pemetrexed, P<0.05
Method: as §9, §10, §11
HuRA15-7CTAcc antibody and MORAb-003 (farletuzumab) were used as anti-human FOLR1 humanized antibodies. The antibody solutions were prepared at 0.1, 1, 10, 100 and 1000 ng/mL with the ADCC measurement medium, so that the final concentrations of the assay became 0.033, 0.33, 3.3, 33 and 333 ng/mL.
as §12, §13, §14
ADCC Activity (%)=100×(Exp−ET spo)/(T total−D−T spo) [Chem. 1]
Here, Exp is the corrected LDH activity value of a sample; ET spo is the corrected LDH activity value of the well in which the effector cell solution and the target cell solution were mixed; T total is the corrected LDH activity value of the well in which the target cells and the Lysis Solution attached to CytoTox 96 Non-Radioactive Cytotoxicity Assay were mixed; D is the corrected LDH activity value of the Lysis Solution; and T spo is the corrected LDH activity value of the well containing the target cells only.

[13] = 1000 nmol/L pemetrexed in low folic acid medium
[14] = low folic acid medium, 0, 10 or 1000 nmol/L pemetrexed, 72 hours

With `Nc1nc2[nH]cc(CCc3ccc(C(=O)N[C@@H](CCC(=O)O)C(=O)O)cc3)c2c(=O)[nH]1` [pemetrexed] the “expression level of FOLR1 relative to incubation with 0 nmol/L pemetrexed” value ([1]; 10 nmol/L pemetrexed) was “about 1.5 times”, the “expression level of FOLR1 relative to incubation with 0 nmol/L pemetrexed” value ([1]; 1000 nmol/L pemetrexed) was ~2 times and the “expression level of FOLR1 relative to incubation with 0 nmol/L pemetrexed” value ([2]; 10 nmol/L pemetrexed) was “about 1.5 times”. The “expression level of FOLR1 relative to incubation with 0 nmol/L pemetrexed” value ([2]; 1000 nmol/L pemetrexed) was ~2 times, the “expression level of FOLR1, dependence on pemetrexed concentration” value (“expression level of FOLR1, dependence” for short) [3] was “higher concentration of pemetrexed induced higher expression level of FOLR1” and the “expression level of FOLR1, dependence” value [4] was “higher concentration of pemetrexed induced higher expression level of FOLR1”. For the same molecule, the “expression level of FOLR1 relative to incubation in the culture medium (NC)” value ([5]; SKOV-3, 1000 nmol/L pemetrexed in low folic acid medium) was “about 2.5 times”, the “expression level of FOLR1, dependence” value ([5]; SKOV-3, low folic acid medium, 0, 10 or 1000 nmol/L pemetrexed) was “higher concentration of pemetrexed induced higher expression level of FOLR1” and the “expression level of FOLR1 relative to incubation in the culture medium (NC)” value ([6]; IGR-OV1, 1000 nmol/L pemetrexed in low folic acid medium) was “about 2.5 times”. For the same molecule, the “expression level of FOLR1, dependence” value ([6]; IGR-OV1, low folic acid medium, 0, 10 or 1000 nmol/L pemetrexed) was “higher concentration of pemetrexed induced higher expression level of FOLR1”, the “expression level of FOLR1 relative to incubation in the culture medium (NC)” value (FOLR1 expression in MCAS; [13]) was “about 7 times” and the “expression level of FOLR1, dependence” value (FOLR1 expression in MCAS; low folic acid medium, 0, 10 or 1000 nmol/L pemetrexed) was “higher concentration of pemetrexed induced higher expression level of FOLR1”. The “expression level of FOLR1 compared to incubation in the culture medium” value [7] was “did not increase”, the “expression level of FOLR1 relative to culture in the culture medium (NC)” value [8, 13] was “approximately 3.5 times” and the “expression level of FOLR1, dependence” value [8, 14] was “higher pemetrexed treatment induced higher expression level of FOLR1”. For the same molecule, the “expression level of FOLR1 relative to culture in the culture medium (NC)” value [9, 13] was “approximately 2 times”, the “expression level of FOLR1, dependence” value [9, 14] was “higher pemetrexed treatment induced higher expression level of FOLR1” and the “expression level of FOLR1 relative to culture in the culture medium (NC)” value [10, 13] was “approximately 3 times”. For the same molecule, the “expression level of FOLR1, dependence” value [10, 14] was “higher pemetrexed treatment induced higher expression level of FOLR1” and the viability at 72 h, 20 nmol/L (in vitro) was 96.6%.

For “MORAb-003: existing anti-human FOLR1 humanized IgG1 antibody, sequences described in WO2005/080431”, the “ADCC activity against NCI-H2228 cultured with pemetrexed versus cultured without pemetrexed” value ([11]; antibody 0.0033, 3.3, 33 and 333 ng/mL) is given as “significantly higher”, the clinical benefit (ovarian cancer; patients with platinum-resistant ovarian cancer, clinical trials terminated) is given as “did not show benefit” and the clinical response (ovarian cancer; patients with platinum-sensitive recurrent ovarian cancer) is given as “responses in some patients”. The clinical benefit (NSCLC) was “did not show benefit” and the “ADCC activity against MCAS cultured with pemetrexed versus cultured without pemetrexed” value ([12]; healthy donor 2-derived PBMCs, antibody 0.33, 3.3, 33 and 333 ng/mL) was “significantly higher”.

B1: HuRA15-7CTAcc: anti-human FOLR1 humanized antibody, VH SEQ ID NO: 8, VL SEQ ID NO: 9, expressed in FUT8 knocked out CHO/DG44 (WO2014/087863) (antibody, V domains shown)
VH: EVQLVESGGGLVQPGGSLRLSCAASGFTFTDFYMNWVRQPPGKAPEWLGFIRNKANGYTTEFNPSVKGRFTISRDNSKNSLYLQMNSLKTEDTATYYCARTLYGYAYYYVMDAWGQGTLVTVSS
VL: DIQMTQSPSSLSASLGDRVTITCRTSEDIFRNLAWYQQKPGKAPKLLIYDTNRLADGVPSRFSGSGSGTDYTLTISSLQPEDFATYFCQQYDNYPLTFGQGTKLEIK
modifications: afucosylated; nonS_HuRA15-7CTVH_AA; nonS_HuRA15-7LV3_AA
For B1, the “ADCC activity against NCI-H2228 cultured with pemetrexed versus cultured without pemetrexed” value ([11]; all the antibody concentrations) was “significantly higher”, the “ADCC activity, dependence on antibody concentration” value ([11]; NCI-H2228, PBMCs of a healthy donor) was “cytotoxicity was observed in association with the antibody concentration” and the “ADCC activity against MCAS cultured with pemetrexed versus cultured without pemetrexed” value ([12]; healthy donor 1-derived PBMCs, all the antibody concentrations) was “significantly higher”. For the same molecule, the “ADCC activity against MCAS cultured with pemetrexed versus cultured without pemetrexed” value ([12]; healthy donor 2-derived PBMCs, antibody 0.033 and 0.33 ng/mL) was “significantly higher” and the “ADCC activity, dependence on antibody concentration” value ([12]; MCAS, PBMCs of two healthy donors, antibody 0.033-333 ng/mL) was “cytotoxicity was observed in association with the antibody concentration”.
